# Assay results: US20070265451A1, “Process for the preparation of oxazolidinones and method of use thereof” (Board of Trustees of Michigan State University, priority 2001, published 2007)
# Tested on: Staphylococcus aureus 29213
# Assay: Broth microdilution MIC, Staphylococcus aureus ATCC 29213
# Assay type: cell-based
# Details: Staphylococcus aureus, ATCC29212, Table 1; SA, strain ATCC 29212; read-out: MIC90-100 SA ATCC 29212
# Excerpt: (§1) See, NCCLS document M7-A5. Methods for Dilution Antimicrobial Susceptibility Tests for Bacteria That Grow Aerobically; Approved Standard-Fifth Edition. Volume 20, Number 2. January 2000, (ISBN 1-56238-394-9) and Lorian V. Antibiotics. Laboratory Medicine. 4th ed. Baltimore: Williams and Wilkins, pp. 52-111 (1996). For subsequent testing, the following strains have been used: Staphylococcus aureus NRS4 (992; HIP5836; New Jersey) (Smith et al., New Engl. J. Med. 340: 493-501 (1999); Tenover et al., J. Clin. Microbiol. 36: 1020-1027 (1998)), Staphylococcus aureus NRS3 (963sm; HIP5827; Michigan) (Smith et al., ibid.; Tenover et al., ibid.), Staphylococcus aureus NRS103 (Becker) (Karakawa and Vann, Sem. Infect. Dis. 4: 285 (1982), Staphylococcus aureus NRS102 (Reynolds) Karakawa and Vann, ibid; McMurray et al., JID 162: 759-762 (1990)), Staphylococcus epidermidis NRS101 (ATCC 35984), Streptococcus pneumoniae (ATCC 49619), Enterococcus faecalis (ATCC 51299), and Staphylococcus aureus (ATCC 43300.
# (§2) Stock cultures of these strains were obtained by seeding colonies from overnight streak plates (Tryptic Soy Agar II (TSAII) and 5% sheep's blood (SB) agar plates: Becton Dickinson, CA#2211261) into sterile Mueller-Hinton Broth (MHB)(Becton Dickinson, CA#211443) and growing the suspensions to mid-late log phase in 13 mL screw-cap tubes. Glycerol (Sigma, CA#G-6279) was sterilized by autoclaving for 15 minutes at 121° C. in 6 mL volumes, and then stored at 2-8° C. This was diluted to 20% in dH2O, and then added 1:1 (250 μL:250 μL, 10% final glycerol concentration) to the logarithmically growing bacterial suspension of each strain. Tubes were frozen and stored at −70° C. Purity of the stock cultures was tested by thawing one tube of each strain in a water bath at 37° C. and plating them on TSAII with 5% SB. Plates were incubated overnight at 37° C. and colonies were examined for morphology. Growth curves and approximate CFU/mL were also obtained.
# (§3) High purity substituted oxazolidinones prepared according to the method of the present invention and a ZYVOX standard (ZYVOX is a trade name for linezolid available from Pharmacia Corporation) were provided by Synthon Corporation, Monmouth Junction, N.J. Compounds were dissolved at 10 mg/mL in DMSO, as after a dilution of approx. 39.0 to reach the desired final starting concentration of 256 ug/ml, the concentration of DMSO is approximately 2.5%. Compounds were then stored at room temperature (25° C.) in the dark.
# (§4) Antimicrobial susceptibility screening was as follows. All compounds were initially screened for activity in duplicate at 256 μg/mL (2.5% DMSO), including ZYVOX, the positive control for antimicrobial activity. A single well of bacterially inoculated 2.5% DMSO served as a positive control for bacterial growth, while a well of DMSO inoculated with of 50 μL of sterile 0.9% saline served as a negative growth control. Controls were prepared on every microplate, so that 46 was the maximum number of compounds that were screened per plate. Broth was pipetted into sterile microcentrifuge tubes, to which the compounds were then added (1:19.53 dilution or 2× final concentration). Each tube was vortexed, and 50 μL was immediately transferred to the microplate wells for each strain. Solubility was assessed by visual observation. MB (medium broth solubility) was recorded if the solution appeared only slightly cloudy. LB (low broth solubility) was recorded if the solution was extremely cloudy, and especially if larger, clumpy precipitates formed. Bacteria were grown as described above, although absorbance was measured at 650 nm and bacteria were diluted to an initial OD of 0.12-0.15. Bacteria were then further diluted 1:100 with 0.9% sterile saline. Within 15 minutes of this final dilution, 50 μL of this suspension was added to each well for a final volume of […], and a final bacterial concentration of 1×10^5 CFU/mL (except for the negative control well). Plates were grown as above and all observations were recorded. […]
row,Compound,MIC90 [µg/mL]
1,CCN1C[C@@H](COS(=O)(=O)c2ccc([N+](=O)[O-])cc2)OC1=O [Compound 2405],2
2,CC(C)N1C[C@H](CNSc2ccc([N+](=O)[O-])cc2)OC1=O [Compound 2428],4
3,"CC(=O)NC[C@H]1CN(c2ccc(N3CCOCC3)c(F)c2)C(=O)O1 [ZYVOX, linezolid, reference compound]",2

# Same assay, conditions: Staphylococcus aureus, ATCC29213, Table 2; read-out: MIC(90-100) SA-ATCC 29213
row,Compound,MIC [µg/mL]
1,CCN1C[C@@H](COS(=O)(=O)c2ccc([N+](=O)[O-])cc2)OC1=O [Compound 1192],8
2,O=C1NCC(COS(=O)(=O)c2ccc(Cl)cc2[N+](=O)[O-])O1 (stereo not drawn) [Compound 1998],16
3,O=C1OC(COSc2ccc([N+](=O)[O-])cc2)CN1Cc1ccc([N+](=O)[O-])cc1 (stereo not drawn) [Compound 2017],16
4,O=C1OC(COSc2ccc([N+](=O)[O-])cc2)CN1Cc1ccc(Br)cc1 (stereo not drawn) [Compound 2019],16
5,O=C(OCC1CN(Cc2ccc(Br)cc2)C(=O)O1)Oc1ccc([N+](=O)[O-])cc1 (stereo not drawn) [Compound 2020],64
6,CC(=O)/C=C/N1CC(COSc2ccc([N+](=O)[O-])cc2)OC1=O (stereo not drawn) [Compound 2023],64
7,CCOC(=O)/C=C/N1CC(COSc2ccc([N+](=O)[O-])cc2)OC1=O (stereo not drawn) [Compound 2025],64

# Same assay, conditions: Table 1; SA, strain ATCC 29212
row,Compound,MIC90-100 SA ATCC 29212 [µg/mL]
1,CCN1C[C@@H](COS(=O)(=O)c2ccc([N+](=O)[O-])cc2)OC1=O [Compound 1192],4 to 8

# Tested on: Enterococcus faecalis 29212
# Assay: Broth microdilution MIC, Enterococcus faecalis ATCC 29212
# Assay type: cell-based
# Details: Enterococcus faecalis, ATCC29212, Table 2; read-out: MIC(90-100) EF-ATCC 29212
row,Compound,MIC [µg/mL]
1,O=C1NCC(COS(=O)(=O)c2ccc(Cl)cc2[N+](=O)[O-])O1 (stereo not drawn) [Compound 1998],64
2,O=C1OC(COSc2ccc([N+](=O)[O-])cc2)CN1Cc1ccc([N+](=O)[O-])cc1 (stereo not drawn) [Compound 2017],8
3,O=C1OC(COSc2ccc([N+](=O)[O-])cc2)CN1Cc1ccc(Br)cc1 (stereo not drawn) [Compound 2019],32
4,O=C(OCC1CN(Cc2ccc(Br)cc2)C(=O)O1)Oc1ccc([N+](=O)[O-])cc1 (stereo not drawn) [Compound 2020],124
5,CC(=O)/C=C/N1CC(COSc2ccc([N+](=O)[O-])cc2)OC1=O (stereo not drawn) [Compound 2023],32
6,CCOC(=O)/C=C/N1CC(COSc2ccc([N+](=O)[O-])cc2)OC1=O (stereo not drawn) [Compound 2025],32

# Same assay, conditions: Enterococcus faecalis, ATCC29213, Table 1; EF, strain printed ATCC 29213; read-out: MIC90-100 EF ATCC 29213
row,Compound,MIC90 [µg/mL]
1,CC(C)N1C[C@H](CNSc2ccc([N+](=O)[O-])cc2)OC1=O [Compound 2428],4
2,"CC(=O)NC[C@H]1CN(c2ccc(N3CCOCC3)c(F)c2)C(=O)O1 [ZYVOX, linezolid, reference compound]",2

# Same assay, conditions: Table 1; EF, strain printed ATCC 29213
row,Compound,MIC90-100 EF ATCC 29213 [µg/mL]
1,CCN1C[C@@H](COS(=O)(=O)c2ccc([N+](=O)[O-])cc2)OC1=O [Compound 1192],250
2,CCN1C[C@@H](COS(=O)(=O)c2ccc([N+](=O)[O-])cc2)OC1=O [Compound 2405],2

# Tested on: Staphylococcus aureus NRS4 (992; HIP5836; New Jersey)
# Assay: Broth microdilution MIC, MR SA New Jersey
# Assay type: cell-based
# Details: Staphylococcus aureus, NRS4, methicillin resistant SA, strain New Jersey; read-out: MIC90-100 MR SA New Jersey
# Excerpt: as §1, §2, §3, §4
row,Compound,MIC90 [µg/mL]
1,CC(C)N1C[C@H](CNSc2ccc([N+](=O)[O-])cc2)OC1=O [Compound 2428],4 to 8
2,"CC(=O)NC[C@H]1CN(c2ccc(N3CCOCC3)c(F)c2)C(=O)O1 [ZYVOX, linezolid, reference compound]",2

# Same assay, conditions: methicillin resistant SA, strain New Jersey
row,Compound,MIC90-100 MR SA New Jersey [µg/mL]
1,CCN1C[C@@H](COS(=O)(=O)c2ccc([N+](=O)[O-])cc2)OC1=O [Compound 1192],256
2,CCN1C[C@@H](COS(=O)(=O)c2ccc([N+](=O)[O-])cc2)OC1=O [Compound 2405],4

# Tested on: Staphylococcus aureus NRS3 (963sm; HIP5827; Michigan)
# Assay: Broth microdilution MIC, MR SA Michigan
# Assay type: cell-based
# Details: Staphylococcus aureus, NRS3, methicillin resistant SA, strain Michigan; read-out: MIC90-100 MR SA Michigan
# Excerpt: as §1, §2, §3, §4
row,Compound,MIC90 [µg/mL]
1,CC(C)N1C[C@H](CNSc2ccc([N+](=O)[O-])cc2)OC1=O [Compound 2428],4 to 8
2,"CC(=O)NC[C@H]1CN(c2ccc(N3CCOCC3)c(F)c2)C(=O)O1 [ZYVOX, linezolid, reference compound]",2

# Same assay, conditions: methicillin resistant SA, strain Michigan
row,Compound,MIC90-100 MR SA Michigan [µg/mL]
1,CCN1C[C@@H](COS(=O)(=O)c2ccc([N+](=O)[O-])cc2)OC1=O [Compound 1192],256
2,CCN1C[C@@H](COS(=O)(=O)c2ccc([N+](=O)[O-])cc2)OC1=O [Compound 2405],2

# Tested on: Enterococcus faecalis (ATCC 51299)
# Assay: Broth microdilution MIC, Enterococcus faecalis ATCC 51299
# Assay type: cell-based
# Details: ATCC51299, vancomycin sensitive EF, ATCC 51299, read-out: MIC90-100 VS EF ATCC 51299
# Excerpt: as §1, §2, §3, §4
row,Compound,MIC90 [µg/mL]
1,CCN1C[C@@H](COS(=O)(=O)c2ccc([N+](=O)[O-])cc2)OC1=O [Compound 1192],> 256
2,"CC(=O)NC[C@H]1CN(c2ccc(N3CCOCC3)c(F)c2)C(=O)O1 [ZYVOX, linezolid, reference compound]",0.5

# Tested on: Staphylococcus aureus (ATCC 43300)
# Assay: Broth microdilution MIC, MR SA ATCC 43300
# Assay type: cell-based
# Details: ATCC43300, methicillin resistant SA, read-out: MIC90-100 MR SA ATCC 43300
# Excerpt: as §1, §2, §3, §4
row,Compound,MIC90 [µg/mL]
1,CCN1C[C@@H](COS(=O)(=O)c2ccc([N+](=O)[O-])cc2)OC1=O [Compound 1192],128
2,"CC(=O)NC[C@H]1CN(c2ccc(N3CCOCC3)c(F)c2)C(=O)O1 [ZYVOX, linezolid, reference compound]",1

# Tested on: Staphylococcus aureus NRS102 (Reynolds)
# Assay: Broth microdilution MIC, Pen. R SA Reynolds
# Assay type: cell-based
# Details: strain Reynolds, read-out: MIC90-100 Pen. R SA Reynolds
# Excerpt: as §1, §2, §3, §4
row,Compound,MIC90 [µg/mL]
1,CCN1C[C@@H](COS(=O)(=O)c2ccc([N+](=O)[O-])cc2)OC1=O [Compound 2405],8
2,CC(C)N1C[C@H](CNSc2ccc([N+](=O)[O-])cc2)OC1=O [Compound 2428],32
3,"CC(=O)NC[C@H]1CN(c2ccc(N3CCOCC3)c(F)c2)C(=O)O1 [ZYVOX, linezolid, reference compound]",1

# Tested on: Staphylococcus aureus NRS103 (Becker)
# Assay: Broth microdilution MIC, Ref SA Becker
# Assay type: cell-based
# Details: strain Becker, read-out: MIC90-100 Ref SA Becker
# Excerpt: as §1, §2, §3, §4
row,Compound,MIC90 [µg/mL]
1,CCN1C[C@@H](COS(=O)(=O)c2ccc([N+](=O)[O-])cc2)OC1=O [Compound 2405],4
2,CC(C)N1C[C@H](CNSc2ccc([N+](=O)[O-])cc2)OC1=O [Compound 2428],16
3,"CC(=O)NC[C@H]1CN(c2ccc(N3CCOCC3)c(F)c2)C(=O)O1 [ZYVOX, linezolid, reference compound]",1

# Tested on: Myeloid bone marrow cells
# Assay: Bone marrow cell growth inhibition, myeloid
# Assay type: cell-based
# Details: not given
# Excerpt: (§5) In general, many of the substituted oxazolidinones were as effective as ZYVOX.
row,Compound,IC50 [µg/mL]
1,CCN1C[C@@H](COS(=O)(=O)c2ccc([N+](=O)[O-])cc2)OC1=O [Compound 1192],5
2,"CC(=O)NC[C@H]1CN(c2ccc(N3CCOCC3)c(F)c2)C(=O)O1 [ZYVOX, linezolid, reference compound]",20

# Tested on: Erythroid bone marrow cells
# Assay: Bone marrow cell growth inhibition, erythroid
# Assay type: cell-based
# Details: not given
# Excerpt: as §5
row,Compound,IC50 [µg/mL]
1,CCN1C[C@@H](COS(=O)(=O)c2ccc([N+](=O)[O-])cc2)OC1=O [Compound 1192],0.05
2,"CC(=O)NC[C@H]1CN(c2ccc(N3CCOCC3)c(F)c2)C(=O)O1 [ZYVOX, linezolid, reference compound]",0.08

# Tested on: Megakaryocytic bone marrow cells
# Assay: Bone marrow cell growth inhibition, megakaryocytic
# Assay type: cell-based
# Details: not given
# Excerpt: as §5
row,Compound,IC50 [µg/mL]
1,CCN1C[C@@H](COS(=O)(=O)c2ccc([N+](=O)[O-])cc2)OC1=O [Compound 1192],0.6
2,"CC(=O)NC[C@H]1CN(c2ccc(N3CCOCC3)c(F)c2)C(=O)O1 [ZYVOX, linezolid, reference compound]",4
